Experiments:
B-RAF V600E = biological target: T1, B-RAF V600E (Homo sapiens, UniProt P15056, V600E); assay: Target protein degradation, assay C: T-Rex 293 cells, HA-BRAF_V600E, 384 well format; format: cell-based; conditions: T-Rex 293 HA-BRAF_V600E cells, 24 hours, Examples 83-269; for DC50: Assay C; for Dmax: T-REx-293, Assay C
T1 construct: expressed in transfected cells; host or cells: T-Rex 293 cells (Invitrogen #R71007)
In short: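 T-Rex 293 cells stably expressing doxycycline-induced (1 ng/mL) HA-BRAF V600E were treated 24 h at 37 °C with compound (300 nM–5 pM, 11 points, 0.5% DMSO). HA immunofluorescence was quantified by high-content imaging to give DC50 and Dmax (% of control); nuclei counts versus DMSO gauged toxicity.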

B-RAF G466V = biological target: T2, B-RAF G466V (Homo sapiens, UniProt P15056, G466V); assay: Target protein degradation, assay D: T-Rex 293 cells, HA-BRAF_G466V, 384 well format; format: cell-based; conditions: T-Rex 293 HA-BRAF_G466V cells, 24 hours, Examples 83-269; for DC50: Assay D; for Dmax: T-REx-293, Assay D
T2 construct: expressed in transfected cells; host or cells: T-Rex 293 cells (Invitrogen #R71007)
T2 sequence (P15056 whole entry G466V): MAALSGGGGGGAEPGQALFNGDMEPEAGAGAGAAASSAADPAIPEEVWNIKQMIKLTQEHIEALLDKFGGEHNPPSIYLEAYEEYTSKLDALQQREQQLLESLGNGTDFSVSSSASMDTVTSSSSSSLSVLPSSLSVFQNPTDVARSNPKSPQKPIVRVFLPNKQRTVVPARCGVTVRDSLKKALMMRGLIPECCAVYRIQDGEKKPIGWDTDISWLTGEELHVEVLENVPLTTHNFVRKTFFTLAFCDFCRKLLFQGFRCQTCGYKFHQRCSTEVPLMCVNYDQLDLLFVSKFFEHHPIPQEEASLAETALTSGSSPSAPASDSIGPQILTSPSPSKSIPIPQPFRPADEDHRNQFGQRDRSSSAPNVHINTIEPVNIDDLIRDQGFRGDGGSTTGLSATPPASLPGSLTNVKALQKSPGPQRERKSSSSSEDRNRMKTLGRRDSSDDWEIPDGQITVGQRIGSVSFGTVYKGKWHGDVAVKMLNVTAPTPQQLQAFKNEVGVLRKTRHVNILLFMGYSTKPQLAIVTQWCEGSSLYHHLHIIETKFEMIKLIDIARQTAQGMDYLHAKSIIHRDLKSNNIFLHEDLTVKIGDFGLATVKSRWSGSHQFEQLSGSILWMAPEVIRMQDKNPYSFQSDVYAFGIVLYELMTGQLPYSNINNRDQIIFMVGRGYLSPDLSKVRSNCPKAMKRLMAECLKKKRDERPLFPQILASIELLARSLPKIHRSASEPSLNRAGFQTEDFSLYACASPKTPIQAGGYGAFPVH
In short: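 T-Rex 293 cells stably expressing doxycycline-induced (1 ng/mL) HA-BRAF G466V treated 24 h at 37 °C with PROTACs, 11-point 1:3 dilution, 300 nM to 5 pM final, 0.5% DMSO. Fixed cells immunostained for HA and imaged by high-content microscopy; DC50 and Dmax (% of control) derived, toxicity from nuclei counts versus DMSO.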

T1 sequence (P15056 whole entry V600E): as the sequence (P15056 whole entry G466V) above, with V466G, V600E counted along it

SMILES	DC50 (B-RAF V600E)	DC50 (B-RAF G466V)	Dmax (B-RAF G466V)	Dmax (B-RAF V600E)
N#Cc1c(NS(=O)(=O)N2CC[C@@H](F)C2)ccc(F)c1Oc1ccc2ncn(-c3ccc(N4CC5(CC(CN6CCC(c7ccc8c(c7)CN(C7CCC(=O)NC7=O)C8=O)CC6)C5)C4)cc3)c(=O)c2c1 (stereo partly drawn) [Example 190, (3R)-N-{2-cyano-3-[(3-(4-[6-({4-[2-(2,6-dioxopiperidin-3-yl)-1-oxo-2,3-dihydro-1H-isoindol-5-yl]piperidin-1-yl}methyl)-2-azaspiro[3.3]heptan-2-yl]phenyl}-4-oxo-3,4-dihydroquinazolin-6-yl)oxy]-4-fluorophenyl}-3-fluoropyrrolidine-1-sulfonamide]	50 to 500 nM	1 to 10 nM	35 to 70%	35 to 70%
N#Cc1c(NS(=O)(=O)N2CC[C@@H](F)C2)ccc(F)c1Oc1ccc2ncn(-c3cccc(C4CCN(CC5CCN(c6ccc7c(c6)CN([C@H]6CCC(=O)NC6=O)C7=O)CC5)C4)c3)c(=O)c2c1 (single isomer, unassigned) [Example 257, (3R)-N-{2-cyano-3-[(3-{3-[(3R*)-1-[(1-{2-[(3S)-2,6-dioxopiperidin-3-yl]-1-oxo-2,3-dihydro-1H-isoindol-5-yl}piperidin-4-yl)methyl]pyrrolidin-3-yl]phenyl}-4-oxo-3,4-dihydroquinazolin-6-yl)oxy]-4-fluorophenyl}-3-fluoropyrrolidine-1-sulfonamide]	50 to 500 nM	1 to 10 nM	35 to 70%	35 to 70%
N#Cc1c(NS(=O)(=O)N2CC[C@@H](F)C2)ccc(F)c1Oc1ccc2ncn(-c3ccc(N4CCN(CC5CCN(c6cc7c(c(C(F)(F)F)c6)C(=O)N(C6CCC(=O)NC6=O)C7)CC5)CC4)cc3)c(=O)c2c1 (stereo partly drawn) [Example 266, (3R)-N-{2-cyano-3-[(3-{4-[4-({1-[2-(2,6-dioxopiperidin-3-yl)-1-oxo-7-(trifluoromethyl)-2,3-dihydro-1H-isoindol-5-yl]piperidin-4-yl}methyl)piperazin-1-yl]phenyl}-4-oxo-3,4-dihydroquinazolin-6-yl)oxy]-4-fluorophenyl}-3-fluoropyrrolidine-1-sulfonamide]	50 to 500 nM	> 30 nM	–	35 to 70%
COc1cc(N2CC(CN3CCN(c4ccc(-n5cnc6ccc(Oc7c(F)ccc(NS(=O)(=O)N8CC[C@@H](F)C8)c7C#N)cc6c5=O)cc4)CC3)C2)cc2c1C(=O)N([C@H]1CCC(=O)NC1=O)C2 [Example 236, (3R)-N-(2-cyano-3-{[3-(4-{4-[(1-{2-[(3S)-2,6-dioxopiperidin-3-yl]-7-methoxy-1-oxo-2,3-dihydro-1H-isoindol-5-yl}azetidin-3-yl)methyl]piperazin-1-yl}phenyl)-4-oxo-3,4-dihydroquinazolin-6-yl]oxy}-4-fluorophenyl)-3-fluoropyrrolidine-1-sulfonamide]	50 to 500 nM	10 to 30 nM	≥ 70%	35 to 70%
N#Cc1c(NS(=O)(=O)N2CC[C@@H](F)C2)ccc(F)c1Oc1ccc2ncn(-c3ccc(N4CC(CN5CCN(C6CCN(c7ccc8c(c7)C(=O)N(C7CCC(=O)NC7=O)C8=O)CC6)CC5)C4)nc3)c(=O)c2c1 (stereo partly drawn) [Example 170, (3R)-N-(2-cyano-3-{[3-(6-{3-[(4-{1-[2-(2,6-dioxopiperidin-3-yl)-1,3-dioxo-2,3-dihydro-1H-isoindol-5-yl]piperidin-4-yl}piperazin-1-yl)methyl]azetidin-1-yl}pyridin-3-yl)-4-oxo-3,4-dihydroquinazolin-6-yl]oxy}-4-fluorophenyl)-3-fluoropyrrolidine-1-sulfonamide]	5 to 50 nM	1 to 10 nM	≤ 35%	≤ 35%
CCN(C)S(=O)(=O)Nc1ccc(F)c(Oc2ccc3ncn(-c4ccc(N5CCN(CC6CCN(c7ccc(C8CCC(=O)NC8=O)cc7F)CC6)CC5)cc4)c(=O)c3c2)c1C#N (stereo not shown) [Example 110, 2-[(3-{4-[4-({1-[4-(2,6-dioxopiperidin-3-yl)-2-fluorophenyl]piperidin-4-yl}methyl)piperazin-1-yl]phenyl}-4-oxo-3,4-dihydroquinazolin-6-yl)oxy]-6-{[ethyl(methyl)sulfamoyl]amino}-3-fluorobenzonitrile]	50 to 500 nM	> 30 nM	–	35 to 70%

Other lines, results leading:

DC50 (B-RAF V600E)	DC50 (B-RAF G466V)	Dmax (B-RAF G466V)	Dmax (B-RAF V600E)	SMILES
> 500 nM	> 30 nM	≤ 35%	–	N#Cc1c(NS(=O)(=O)N2CC[C@@H](F)C2)ccc(F)c1Oc1ccc2ncn(-c3ccc(N4CCC(CN5CCC(Oc6cccc7c6C(=O)N(C6CCC(=O)NC6=O)C7=O)CC5)CC4)nc3)c(=O)c2c1 (stereo partly drawn) [Example 137, (3R)-N-(2-cyano-3-{[3-(6-{4-[(4-{[2-(2,6-dioxopiperidin-3-yl)-1,3-dioxo-2,3-dihydro-1H-isoindol-4-yl]oxy}piperidin-1-yl)methyl]piperidin-1-yl}pyridin-3-yl)-4-oxo-3,4-dihydroquinazolin-6-yl]oxy}-4-fluorophenyl)-3-fluoropyrrolidine-1-sulfonamide]
50 to 500 nM	1 to 10 nM	35 to 70%	35 to 70%	Cc1cc(N2CC(CN3CCN(c4ccc(-n5cnc6ccc(Oc7c(F)ccc(NS(=O)(=O)N8CC[C@@H](F)C8)c7C#N)cc6c5=O)cc4)CC3)C2)cc2c1C(=O)N([C@@H]1CCC(=O)NC1=O)C2 [Example 235, (3R)-N-(2-cyano-3-{[3-(4-{4-[(1-{2-[(3R)-2,6-dioxopiperidin-3-yl]-7-methyl-1-oxo-2,3-dihydro-1H-isoindol-5-yl}azetidin-3-yl)methyl]piperazin-1-yl}phenyl)-4-oxo-3,4-dihydroquinazolin-6-yl]oxy}-4-fluorophenyl)-3-fluoropyrrolidine-1-sulfonamide]
> 500 nM	1 to 10 nM	35 to 70%	–	N#Cc1c(NS(=O)(=O)N2CC[C@@H](F)C2)ccc(F)c1Oc1ccc2ncn(-c3ccc(C4CCN([C@H]5C[C@H](OC6CCN(c7ccc8c(c7)CN(C7CCC(=O)NC7=O)C8=O)CC6)C5)CC4)cc3)c(=O)c2c1 (stereo partly drawn) [Example 249, (3R)—N-(2-cyano-4-fluoro-3-{[4-oxo-3-(4-{1-[(1r,3r)-3-({1-[2-(2,6-dioxopiperidin-3-yl)-1-oxo-2,3-dihydro-1H-isoindol-5-yl]piperidin-4-yl}oxy)cyclobutyl]piperidin-4-yl}phenyl)-3,4-dihydroquinazolin-6-yl]oxy}phenyl)-3-fluoropyrrolidine-1-sulfonamide]
> 500 nM	> 30 nM	–	–	N#Cc1c(NS(=O)(=O)N2CC[C@@H](F)C2)ccc(F)c1Oc1ccc2ncn(-c3ccc(N4CCC(c5ccc6c(c5)C(=O)N(C5CCC(=O)NC5=O)C6=O)CC4)nc3)c(=O)c2c1 (stereo partly drawn) [Example 135, (3R)-N-(2-cyano-3-{[3-(6-{4-[2-(2,6-dioxopiperidin-3-yl)-1,3-dioxo-2,3-dihydro-1H-isoindol-5-yl]piperidin-1-yl}pyridin-3-yl)-4-oxo-3,4-dihydroquinazolin-6-yl]oxy}-4-fluorophenyl)-3-fluoropyrrolidine-1-sulfonamide]
> 500 nM	> 30 nM	35 to 70%	–	N#Cc1c(NS(=O)(=O)N2CC[C@@H](F)C2)ccc(F)c1Oc1ccc2ncn(-c3ccc(N4CCN(C(=O)C5CCN(c6ccc7c(c6)CN(C6CCC(=O)NC6=O)C7=O)CC5)CC4)cc3)c(=O)c2c1 (single isomer, unassigned) [Example 241, (3R)-N-{2-cyano-3-[(3-{4-[4-(1-{2-[(3R*)-2,6-dioxopiperidin-3-yl]-1-oxo-2,3-dihydro-1H-isoindol-5-yl}piperidine-4-carbonyl)piperazin-1-yl]phenyl}-4-oxo-3,4-dihydroquinazolin-6-yl)oxy]-4-fluorophenyl}-3-fluoropyrrolidine-1-sulfonamide]
